According to ChEMBL document CHEMBL5346906, “Discovery of novel tranylcypromine-based derivatives as LSD1 inhibitors for gastric cancer treatment” (Eur J Med Chem, 2023):
The source made the active and inactive calls. The calls are words filed in the database; no cut-off is given here.

Tests used:
MGC-803 [1] = assay: Induction of cell differentiation in human MGC-803 cells assessed as decrease in nucleoplasmic ratio of cells incubated for 6 days measured by Giemsa staining method; assay type: functional, cell-based; conditions: dose 2-4 µmol/L, time 6.0 day
MGC-803 [2] = assay: Induction of apoptosis in human MGC-803 cells assessed as viable cells at 8 micromol/L for 48 hrs by annexinV-FITC/PI staining based flow cytometric analysis (reference value: 95.54%); assay type: functional; conditions: MGC-803, 48 h, dose 8 µmol/L, read-out: Activity
MGC-803 [3] = assay: Induction of cell differentiation in human MGC-803 cells assessed as increase in CD86 level at 8 micromol/L incubated for 48 hrs by flow cytometric analysis (reference value: 60%); assay type: functional; conditions: dose 8 µmol/L, at 8 µM
MGC-803 [4] = assay: Induction of mitochondrial membrane potential depolarization in human MGC-803 assessed as early apoptotic cells measured at 24 micromol/L for 20 mins by JC-1 staining based flow cytometric analysis (reference value: 4.52%); assay type: functional; conditions: dose 24 µmol/L, at 24 µM
MGC-803 [5] = assay: Induction of mitochondrial membrane potential depolarization in human MGC-803 assessed as late apoptotic cells measured at 8 micromol/L for 20 mins by JC-1 staining based flow cytometric analysis (reference value: 94.98%); assay type: functional; conditions: dose 8 µmol/L, at 8 µM
MGC-803 [6] = assay: Induction of cell differentiation in human MGC-803 cells assessed as increase in CD86 level at 16 micromol/L incubated for 48 hrs by flow cytometric analysis (reference value: 60%); assay type: functional; conditions: dose 16 µmol/L, at 16 µM
MGC-803 [7] = assay: Antiproliferative activity against human MGC-803 cells assessed as reduction in stemness of cells by measuring tumor ball diameter at 0 to 8 uM after 48 hrs using 3D-spheroid assay; assay type: functional, cell-based; conditions: dose 0-8 µM
MGC-803 [8] = assay: Induction of mitochondrial membrane potential depolarization in human MGC-803 assessed as necrotic cells measured at 24 micromol/L for 20 mins by JC-1 staining based flow cytometric analysis (reference value: 0.00%); assay type: functional; conditions: dose 24 µmol/L, at 24 µM
MGC-803 [9] = assay: Antiproliferative activity against human MGC-803 cells assessed as reduction in stemness of cells by measuring tumor ball diameter at 0 to 8 uM after 48 hrs measured after 10 days using 3D-spheroid assay; assay type: functional, cell-based; conditions: dose 0-8 µM
[10] = molecular target: T1, Lysine-specific histone demethylase 1A (Homo sapiens, UniProt O60341); assay: Inhibition of LSD1 in human MGC-803 cells assessed as increase in dimethylation of H3K9; assay type: cell-based; conditions: dose 0-24 µmol/L
MGC-803 [11] = assay: Induction of mitochondrial membrane potential depolarization in human MGC-803 assessed as late apoptotic cells measured at 16 micromol/L for 20 mins by JC-1 staining based flow cytometric analysis (reference value: 94.98%); assay type: functional; conditions: dose 16 µmol/L, at 16 µM
MGC-803 [12] = assay: Induction of apoptosis in human MGC-803 cells assessed as viable cells at 16 micromol/L for 48 hrs by annexinV-FITC/PI staining based flow cytometric analysis (reference value: 95.54%); assay type: functional; conditions: MGC-803, 48 h, dose 16 µmol/L, read-out: Activity
MGC-803 [13] = assay: Induction of apoptosis in human MGC-803 cells assessed as morphological change in cell nucleus incubated at 8 to 24 micromol/L for 48 hrs measured by DAPI staining analysis; assay type: functional, cell-based; conditions: dose 8-24 µmol/L
MGC-803 [14] = assay: Induction of apoptosis in human MGC-803 cells assessed as decrease in anti-apoptotic Bcl-2 expression at 8 to 24 micromol/L; assay type: functional, cell-based; conditions: dose 8-24 µmol/L
MGC-803 [15] = assay: Induction of apoptosis in human MGC-803 cells assessed as late apoptotic cells at 16 micromol/L for 48 hrs by annexinV-FITC/PI staining based flow cytometric analysis (reference value: 1.32%); assay type: functional; conditions: dose 16 µmol/L, at 16 µM
MGC-803 [16] = assay: Induction of apoptosis in human MGC-803 cells assessed as necrotic cells at 24 micromol/L for 48 hrs by annexinV-FITC/PI staining based flow cytometric analysis (reference value: 0.22%); assay type: functional; conditions: dose 24 µmol/L, at 24 µM
[17] = molecular target: T1, Lysine-specific histone demethylase 1A; assay: Inhibition of LSD1 in human MGC-803 cells assessed as increase in methylation of H3K9 at 24 micromol/L; assay type: cell-based; conditions: dose 24.0 µmol/L
MGC-803 [18] = assay: Induction of apoptosis in human MGC-803 cells assessed as cell death incubated at 8 to 24 micromol/L for 48 hrs measured by Calcein-AM/PI staining analysis; assay type: functional, cell-based; conditions: dose 8-24 µmol/L
MGC-803 [19] = assay: Induction of apoptosis in human MGC-803 cells assessed as decrease in capase3 expression at 8 to 24 micromol/L; assay type: functional, cell-based; conditions: dose 8-24 µmol/L
MGC-803 [20] = assay: Induction of apoptosis in human MGC-803 cells assessed as decrease in anti-apoptotic c-IAP1 expression at 8 to 24 micromol/L; assay type: functional, cell-based; conditions: dose 8-24 µmol/L
[21] = molecular target: T2, Amine oxidase [flavin-containing] A (Homo sapiens, UniProt P21397); assay: Inhibition of MAO-A (unknown origin) measured by MAO-GloTM method
T2 sequence (P21397 whole entry): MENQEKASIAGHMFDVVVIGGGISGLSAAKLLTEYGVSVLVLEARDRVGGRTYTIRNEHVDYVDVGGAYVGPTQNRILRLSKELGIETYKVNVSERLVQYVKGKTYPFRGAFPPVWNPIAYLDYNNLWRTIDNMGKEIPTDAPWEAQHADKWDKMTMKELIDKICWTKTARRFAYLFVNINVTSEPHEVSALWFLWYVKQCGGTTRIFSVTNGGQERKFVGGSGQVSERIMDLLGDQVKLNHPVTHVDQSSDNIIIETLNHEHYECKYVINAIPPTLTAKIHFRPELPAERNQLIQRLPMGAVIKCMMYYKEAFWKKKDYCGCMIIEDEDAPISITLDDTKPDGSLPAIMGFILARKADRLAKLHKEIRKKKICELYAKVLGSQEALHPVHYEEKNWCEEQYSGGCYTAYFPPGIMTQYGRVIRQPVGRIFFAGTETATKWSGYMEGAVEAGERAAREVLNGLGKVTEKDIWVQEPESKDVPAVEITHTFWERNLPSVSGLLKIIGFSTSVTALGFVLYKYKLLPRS

MGC-803 [22] = assay: Induction of apoptosis in human MGC-803 cells assessed as morphological change of cells incubated at 8 to 24 micromol/L for 48 hrs measured by bright field microscopic analysis; assay type: functional, cell-based; conditions: dose 8-24 µmol/L
MGC-803 [23] = assay: Induction of mitochondrial membrane potential depolarization in human MGC-803 assessed as necrotic cells measured at 8 micromol/L for 20 mins by JC-1 staining based flow cytometric analysis (reference value: 0.00%); assay type: functional; conditions: dose 8 µmol/L, at 8 µM
MGC-803 [24] = assay: Induction of apoptosis in human MGC-803 cells assessed as early apoptotic cells at 24 micromol/L for 48 hrs by annexinV-FITC/PI staining based flow cytometric analysis (reference value: 2.92%); assay type: functional; conditions: dose 24 µmol/L, at 24 µM
[25] = molecular target: T1, Lysine-specific histone demethylase 1A; assay: Inhibition of LSD1 in human MGC-803 cells assessed as increase in mono methylation of H3K4; assay type: cell-based; conditions: dose 0-24 µmol/L
MGC-803 [26] = assay: Induction of apoptosis in human MGC-803 cells assessed as late apoptotic cells at 8 micromol/L for 48 hrs by annexinV-FITC/PI staining based flow cytometric analysis (reference value: 1.32%); assay type: functional; conditions: dose 8 µmol/L, at 8 µM
KYSE-450 = assay: Antiproliferative activity against human KYSE-450 cells incubated for 48 hrs measured by MTT assay; assay type: functional, cell-based; conditions: KYSE-450, 48 h
MGC-803 [27] = assay: Induction of apoptosis in human MGC-803 cells assessed as early apoptotic cells at 8 micromol/L for 48 hrs by annexinV-FITC/PI staining based flow cytometric analysis (reference value: 2.92%); assay type: functional; conditions: dose 8 µmol/L, at 8 µM

In the case of `O=C(c1cccc(CN[C@@H]2C[C@H]2c2ccc(F)c(F)c2)c1)N1CCN(c2ccc(Cl)c(Cl)c2)CC1`, the Activity (MGC-803 [1]) is reported as “Dose-Dependent Effect”, the viability at 8 µM (MGC-803 [2]) is reported as 91% and the Activity (MGC-803 [3]) is reported as 64.13%. The Activity (MGC-803 [4]) was 29.22%, the Activity (MGC-803 [5]) was 93.18% and the Activity (MGC-803 [6]) was 64.32%. For the same molecule, the Activity (MGC-803 [7]) was “Active”, the Activity (MGC-803 [8]) was 0.12% and the Activity (MGC-803 [9]) was “Active”. For the same molecule, the inhibition [10] was “Dose-Dependent Effect”, the Activity (MGC-803 [11]) was 81% and the viability at 16 µM (MGC-803 [12]) was 57.5%. For the same molecule, the Activity (MGC-803 [13]) was “Active”, the Activity (MGC-803 [14]) was “Active” and the Activity (MGC-803 [15]) was 10.43%. For the same molecule, the Activity (MGC-803 [16]) was 0.38%, the inhibition [17] was “Active” and the Activity (MGC-803 [18]) was “Active”. The Activity (MGC-803 [19]) was “Active”, the Activity (MGC-803 [20]) was “Active” and the IC50 [21] was 1.23 µM. For the same molecule, the Activity (MGC-803 [22]) was “Active”, the Activity (MGC-803 [23]) was 0% and the Activity (MGC-803 [24]) was 37.89%. For the same molecule, the inhibition [25] was “Dose-Dependent Effect”, the Activity (MGC-803 [26]) was 2.76% and the IC50 (KYSE-450) was 22.8 µM. It also gave an Activity (MGC-803 [27]) of 5.92%.
